Like-named read-outs stand apart in the source and are kept apart here.
Legend:
[1] = system: caspase-3; assay type: cell-based, human; conditions: HepG2 infected with vACE-NT; normoxia; 72 h after administering DOX
[2] = system: caspase-3; assay type: cell-based; conditions: FLC4 infected with vACE-NT; normoxia; 72 h after administering DOX
[3] = system: uveal melanoma cells (Mel270, OMM2.3, OMM2.5, OMM1, 92.1); assay type: cell-based
[4] = system: HepG2 tumors; assay type: in vivo, SCID mice

COc1cccc2c1C(=O)c1c(O)c3c(c(O)c1C2=O)C[C@@](O)(C(=O)CO)C[C@@H]3O[C@H]1C[C@H](N)[C@H](O)[C@H](C)O1 [DOX, Doxorubicin]
increase of caspase-3 activation [1]: 35 fold | increase of caspase-3 activation [2]: 12 fold | cell death in uveal melanoma cells [3]: induce cell death | reduction of tumor growth rate ([4]; DOX 55 mg/kg IP twice a week, tumors infected with vACE-NT, light emission day 42 vs day 14): 45% | effect on tumors ([4]; DOX 75 mg/kg IP twice a week, even in vACE-NT infected tumors): almost completely eradicate the tumors | growth rate of tumors on addition of DOX ([4]; all tumors (vACE-NT, vACE-CREB, vACE-X3 infected), DOX 55 mg/kg): reduced the growth rate of all tumors

Source: patent publication US20170247693A1 (priority 2016, published 2017)
